Patent US4797280A, “Antibiotics produced by Kibdelosporangium aridum Shearer gen. nov., sp. nov. ATCC 39323” (SmithKline Beckman Corporation, priority 1986, dated 1989)
Where a SMILES comes first, the peptide text is derived from it. Bridges are numbered along the chain shown (N, C = ends). [ ]: non-standard residue; d: D form. The star is where a group is joined. Ileψ(thiazoline)Cys = CC[C@H](C)[C@H](N)C1=N[C@H](C(=O)*)CS1; dOrn = NCCC[C@@H](N)C(=O)O

Legend:
[1] = tested on: rumen inoculum; assay: Rumen in vitro model; set-up: species or system steer
[2] = tested on: Kibdelosporangium aridum; assay: Susceptibility of K. aridum to antibiotics, disk diffusion; format: cell-based; conditions: 28° C., one week
Description: Susceptibility of K. aridum to antibiotics was examined by placing BBL susceptibility disks on nutrient agar plates seeded with K. aridum as an overlay. Diameters of the zones of inhibition were measured after incubation for one week at 28° C.
Susceptibility to Antibiotics. […] Chlortetracycline ([…]) produced 18 mm zones of inhibition; tetracycline (5 μg) 11-12 mm zones; rifampin (5 μg) 11-15 mm zones; novobiocin (5 μg) 27-28 mm zones. All zones of inhibition contained at least a few resistant colonies.

[3] = tested on: swine ileal or cecal inoculum; assay: Swine in vitro model (ileal/cecal inoculum fermentation); set-up: species or system swine (Yorkshire barrow)

`CN[C@H](CC(C)C)C(=O)N[C@H]1C(=O)N[C@@H](CC(N)=O)C(=O)N[C@H]2C(=O)N[C@H]3C(=O)N[C@H](C(=O)N[C@H](C(=O)O)c4cc(O)cc(O)c4-c4cc3ccc4O)[C@H](O)c3ccc(c(Cl)c3)Oc3cc2cc(c3O[C@@H]2O[C@H](CO)[C@@H](O)[C@H](O)[C@H]2O[C@H]2C[C@](C)(N)[C@H](O)[C@H](C)O2)Oc2ccc(cc2Cl)[C@H]1O` [Vancomycin] was tested, and the “% PR” value ([1]; 0.5 ppm) was 105% OF CONTROL, the ACE ([1]; 0.5 ppm) was 95% OF CONTROL and the AMO ([1]; 0.5 ppm) was 0% OF CONTROL. For the same molecule, the BUT ([1]; 0.5 ppm) was 96% OF CONTROL, the DLAC ([1]; 0.5 ppm) was 0% OF CONTROL and the ETOH ([1]; 0.5 ppm) was 0% OF CONTROL. The IBU ([1]; 0.5 ppm) was 115% OF CONTROL, the IVA ([1]; 0.5 ppm) was 82% OF CONTROL and the LLAC ([1]; 0.5 ppm) was 0% OF CONTROL. For the same molecule, the PRO ([1]; 0.5 ppm) was 103% OF CONTROL, the TOTAL ([1]; 0.5 ppm) was 97% OF CONTROL and the UREA ([1]; 0.5 ppm) was 0% OF CONTROL. For the same molecule, the VAL ([1]; 0.5 ppm) was 95% OF CONTROL, the VFA ([1]; 0.5 ppm) was 97 % Control and the “% PR” value ([1]; 5 ppm) was 130% OF CONTROL. It also gave an ACE ([1]; 5 ppm) of 93% OF CONTROL, an AMO ([1]; 5 ppm) of 0% OF CONTROL and a BUT ([1]; 5 ppm) of 98% OF CONTROL. For the same molecule, the DLAC ([1]; 5 ppm) was 0% OF CONTROL, the ETOH ([1]; 5 ppm) was 0% OF CONTROL and the IBU ([1]; 5 ppm) was 137% OF CONTROL. It also gave an IVA ([1]; 5 ppm) of 99% OF CONTROL, an LLAC ([1]; 5 ppm) of 43% OF CONTROL and a TOTAL ([1]; 5 ppm) of 108% OF CONTROL. It also gave a UREA ([1]; 5 ppm) of 0% OF CONTROL, a VAL ([1]; 5 ppm) of 90% OF CONTROL and a VFA ([1]; 5 ppm) of 108 % Control. The Propionate % ([1]; 5 ppm, propionate as % of total VFA) was 130 % Control, the “% PR” value ([1]; 50 ppm) was 127% OF CONTROL and the ACE ([1]; 50 ppm) was 87% OF CONTROL. The AMO ([1]; 50 ppm) was 0% OF CONTROL, the BUT ([1]; 50 ppm) was 111% OF CONTROL and the DLAC ([1]; 50 ppm) was 0% OF CONTROL. The ETOH ([1]; 50 ppm) was 0% OF CONTROL, the IBU ([1]; 50 ppm) was 164% OF CONTROL and the IVA ([1]; 50 ppm) was 212% OF CONTROL. It also gave an LLAC ([1]; 50 ppm) of 999% OF CONTROL, a PRO ([1]; 50 ppm) of 136% OF CONTROL and a TOTAL ([1]; 50 ppm) of 107% OF CONTROL. It also gave a UREA ([1]; 50 ppm) of 0% OF CONTROL, a VAL ([1]; 50 ppm) of 83% OF CONTROL and a VFA ([1]; 50 ppm) of 107 % Control. The “Susceptibility of K. aridum” value ([2]; disk 30 μg) was “resistant”, the GLU ([3]; 1.67 ppm) was 100 % Control and the LAC ([3]; 1.67 ppm) was 99 % Control. The LYS ([3]; 1.67 ppm) was 83 % Control, the VFA ([3]; 1.67 ppm) was 92 % Control and the GLU ([3]; 16.67 ppm) was 189 % Control. For the same molecule, the LAC ([3]; 16.67 ppm) was 59 % Control, the LYS ([3]; 16.67 ppm) was 42 % Control and the VFA ([3]; 16.67 ppm) was 280 % Control. The GLU ([3]; 166.67 ppm) was 190 % Control, the LAC ([3]; 166.67 ppm) was 64 % Control and the LYS ([3]; 166.67 ppm) was 48 % Control. For the same molecule, the VFA ([3]; 166.67 ppm) was 250 % Control.
For `CC[C@H](C)[C@H](N)C1=N[C@H](C(=O)N[C@@H](CC(C)C)C(=O)N[C@H](CCC(=O)O)C(=O)N[C@H](C(=O)N[C@H]2CCCCNC(=O)[C@H](CC(N)=O)NC(=O)[C@@H](CC(=O)O)NC(=O)[C@H](Cc3cnc[nH]3)NC(=O)[C@@H](Cc3ccccc3)NC(=O)[C@H]([C@@H](C)CC)NC(=O)[C@@H](CCCN)NC2=O)[C@@H](C)CC)CS1` [bacitracin] ({Ileψ(thiazoline)Cys}-L[dE]IK[dOrn]I[dF]H[dD]N; lactam 4-C), the “Susceptibility of K. aridum” value ([2]; disk 2 units) was “resistant”.
For gentamicin, the “Susceptibility of K. aridum” value ([2]; disk 10 μg) was “resistant”.
In the case of `CC1(C)S[C@@H]2[C@H](NC(=O)Cc3ccccc3)C(=O)N2[C@H]1C(=O)O` [penicillin], the “Susceptibility of K. aridum” value ([2]; disk 10 units) is reported as “resistant”.
